Laboratory results: patent US7919117B2, “Transdermal delivery of (R)-3,3-diphenylpropylamin-monoestern” (UCB Pharma GmbH, priority 2003, dated 2011)

Tests used:
[1] = Flow of active ingredient in the human skin model according to Tanojo (in-vitro flux); assay type: in vitro ADME; settings: see Table 1
Description: 3.2. Determination of the Flow of Active Ingredient in the Human Skin Model (a) experimental Design The determination of the fesoterodine flux through human skin was essentially performed as described in H. Tanojo et al, J. Control Rel. 45 (1997) 41-47, where instead of the silicone membrane a dialysis membrane was used [[…] Dialysemembran, type 10. 14, obtained from the company Dianorm, Munich, Germany, manufactured from neutral cellulose, exclusion size 5000 Da, thickness (dry): 25 μm; pretreatment in accordance with manufacturer information]. Human skin in a thickness of approximately 250 μm was obtained from the abdomen. A TTS with a surface of 2.545 cm^2 was applied on human skin of equal surface size, where the skin on the acceptor site lays on a […] membrane (FIG. 5). PBS (0.066 molar) was used as the acceptor phase at pH 6.2 and a temperature of 32±0.5° C. The experiments were performed over 72 hours with a 5 ml/hour flux, whereby samples were taken every 3 hours. At the times that the samples are taken, the releasing medium is replaced with fresh medium thermo stated at 32±0.5° C. and the amount of the released fesoterodine measured per HPLC. […]

[2] = Stabilization of fesoterodine in various matrices during storage (drop in concentration); assay type: physicochemical; settings: storage for 6 months at 5° C.
Experimental: While, for example, the free base of fesoterodine is decomposed as an oil after storage for 6 months at 5° C. to around 3-4% a drop in concentration cannot be established or can only be established essentially to a lesser extent when fesoterodine is incorporated in matrices, which contain polar components.

[3] = Stability at processing temperatures in the hot melt procedure; assay type: physicochemical; settings: processing temperatures up to 200° C.
Description: In a hot melt procedure the polymers and any auxiliary agents are thermally melted and mixed without the use of any solvents and the meltings spread out on foil. The active ingredient is normally introduced directly into the liquid melt. […] The dynamic viscosity may be determined in the process as described in U.S. Pat. No. 5,328,696.
An alternative procedure that dispenses with the use of organic solvents is the hot melt procedure. In this procedure the polymer or the contact adhesive are melted at temperatures between 70 and 200° C., preferably between 90 and 160° C. and especially preferably between 100 and 150° C. and the active ingredient introduced into the homogenized matrix melt. After a brief homogenization the adhesive matrix that contains the active ingredient is cooled again so that the active ingredient is exposed to a thermal load in general for less than 5 minutes, if desired even for 4, 3, 2 or even for less than 1 minute. Following this the active ingredient is present in the solidified polymer melt. During the process the active ingredient is broadly shielded from critical environmental influences (light, oxygen).

[4] = Flow of active ingredient in the mouse skin model (in-vitro flux, horizontal diffusion cell); assay type: in vitro ADME; settings: salt introduced into the polymer layer, also with oleic acid etc. (Table 1)
Experimental: 3.1. Determination of the Flow of Active Ingredient in the Mouse Skin Model Belly and back skin in a thickness of approximately 120 to 150 μm was used in a horizontal diffusion cell for the flux measurements through mouse skin. Medium: phosphate buffer solution (0.066 molar) pH 6.2, 32° C. Release of the active ingredient was determined by HPLC.

## CC(C)N(CCC(c1ccccc1)c1cc(CO)ccc1O)C(C)C (stereo not shown) [2-[3-(1,1-diisopropylamino)-1-phenylpropyl]-4-(hydroxymethyl)phenol]
[1]
  rate of penetration through the human skin (in words): very low rate of penetration

## CC(C)C(=O)Oc1ccc(CO)cc1[C@H](CCN(C(C)C)C(C)C)c1ccccc1 [fesoterodine, (R)-2-[3-(1,1-diisopropylamino)-1-phenylpropyl]-4-(hydroxymethyl)phenyl isobutyrate]
[2]
  Decomposition of the free base stored as an oil: 3-4%
[3]
  stability at hot melt processing temperatures (in words): surprisingly stable

## CC(C)C(=O)Oc1ccc(CO)cc1[C@H](CCN(C(C)C)C(C)C)c1ccccc1.O=C(O)/C=C/C(=O)O [fumarate salt from fesoterodine, (R)-2-[3-(1,1-diisopropylamino)-1-phenylpropyl]-4-(hydroxymethyl)phenyl isobutyrate hydrogen fumarate]
[4]
  flux rates (in words): flux rates not sufficient for transdermal treatment
